Measurements taken from patent publication US5463118A, “N-(l-aspartyl)amino alcohol derivative and sweetener containing the same” (Takasago International Corporation, priority 1987, dated 1995).
Where two headings read alike, the source gives them in different places. Where a SMILES comes first, the peptide text is derived from it.

What was measured:
[1] = degree of sweetness based on sucrose of compounds of differing absolute configuration; conditions: for Degree of sweetness based on sucrose: Table 2
Protocol: Compounds of absolute configurations (a) and (b) of (RS,RS) and (S,S) were prepared by way of trial, and the degrees and characteristics of sweetness thereof were evaluated.

[2] = sweetness characteristics in standard cola beverage, nine panelists; conditions: cola beverage stored at 37° C. for 26 days, 1 extremely poor to 9 extremely excellent, sweetener at 30 to 520 ppm
Protocol: The sweetness characteristics were evaluated in the following manner.
A standard beverage was prepared by adding the following materials to 1600 ml of carbonated water:
Various sweeteners were added to the standard beverage each at a definite concentration. The beverages thus obtained were stored at 37° C. for 26 days and then evaluated by nine panelists according to the following criterion.

[3] = among dipeptide esters known so far; cited from earlier work
[4] = versus APM; cited from earlier work
[5] = taste intensity threshold value by a limit method, panel of five skilled flavorists; conditions: for Taste intensity threshold value: dissolved in water, limit method, five skilled flavorists; for Degree of sweetness: sucrose = 1, from Table 1
Protocol: Each of (2R,3R)-3-N-(L-aspartyl)amino-1-2-butanol (XVI') obtained in Example 2, 2-8), which will be referred to as "compound A" hereinafter, the (2R,3R)-3-N-(L-aspartyl)amino-1-2-butanol (XVII) obtained in Example 1, 1-15), which will be referred to as "compound B" hereinafter, APM and sucrose was dissolved in water. The threshold value of each compound was determined by a limit method by a panel consisting of five skilled flavorists.

solubility in water = format: physicochemical
[6] = sweetness characteristics of diluted aqueous solution
[7] = stability of aqueous solution (percent remaining by HPLC, 0.1M phosphate buffer pH 4.0, 80° C.); format: physicochemical; conditions: general statement
Protocol: Each of compounds A and B, APM and L-aspartyl-DL-aminomalonic acid methyl fenchyl ester as disclosed in JP-A-49-30566, which will be abbreviated as "AMF" hereinafter, was dissolved in a 0.1M phosphate buffer solution (pH 4.0) at a concentration of 0.2%. The obtained solution was maintained at 80° C. and the percent remaining was monitored by high performance liquid chromatography with a lapse of time to thereby compare the stabilities of these solutions with each other.

[8] = degree of sweetness of L-aspartyl fenchyl amino alcohols by absolute configuration at (a) and (b); conditions: for Degree of sweetness: R1 methyl, R2 fenchyl, absolute configuration (a),(b)
Protocol: Subsequent studies by the inventors have disclosed that the sweetness essentially depends on the absolute configuration at the (a) and (b) positions in the following formula (i). For example, compounds of the following general formula: [drawing 1]
wherein R1 is methyl group while R2 is fenchyl group:
The absolute configurations at the (a) and (b) positions are determined by resolving amino alcohol derivatives with tartaric acid to thereby give p-bromobenzoic acid amide derivatives of the following formula (ii) and then analyzing the crystal structures thereof with X-rays: [drawing 2]

## CC(NC(=O)[C@@H](N)CC(=O)O)C(O)C[C@@H]1C[C@@H]2CC[C@@]1(C)C2 (stereo partly shown)
[1]
  Degree of sweetness based on sucrose: 800 time
[2]
  Average score: 5.1

## CC(NC(=O)[C@@H](N)CC(=O)O)C(O)C[C@@H]1[C@@H]2CC[C@@H](C2)[C@H]1C (stereo partly shown)
[1]
  Degree of sweetness based on sucrose: 850 time
[2]
  Average score: 5.0

## COC(=O)C(NC(=O)[C@@H](N)CC(=O)O)C(=O)OC1C2(C)CCC(C2)C1(C)C (mixture of isomers) [AMF, L-aspartyl-DL-aminomalonic acid methyl fenchyl ester]
[3]
  degree of sweetness, in words: highest degree of sweetness
[4]
  stability at 80° C. and at a pH of 4: inferior to APM in stability at 80 °C and at a pH of 4

## C[C@@H]1[C@H]2CC[C@H](C2)[C@H]1C[C@@H](O)[C@@H](C)NC(=O)[C@@H](N)CC(=O)O [Compound A, (2R,3R)-3-N-(L-aspartyl)amino-1-2-butanol]
[1]
  Degree of sweetness based on sucrose: 2,500 time
[2]
  Average score: 6.2
[5]
  Taste intensity threshold value: 0.00024%
  Degree of sweetness: 2,500 time

## CC1C2CCC(C2)C1C[C@@H](O)[C@@H](C)NC(=O)[C@@H](N)CC(=O)O (stereo partly drawn) [(2R,3R)-3-N-(L-aspartyl)amino-1-(3-methyl-2-norbornyl)-2-butanol]
Solubility in water
  solubility in water: highly soluble in water
[6]
  disagreeable tastes (bitter taste, bad taste, unpleasant aftertaste): almost no disagreeable tastes
  sweetness characteristics: closely similar to those of sucrose
[7]
  heat stability: good in heat stability
  stability in acidic aqueous solutions: excellent in stability in acidic aqueous solutions

## C[C@@H](NC(=O)[C@@H](N)CC(=O)O)[C@H](O)CC1C2(C)CCC(C2)C1(C)C (stereo partly drawn) [(R,R)]
[8]
  degree of sweetness, in words: highest degree of sweetness
  Degree of sweetness: 12,500

## C[C@@H](NC(=O)[C@@H](N)CC(=O)O)[C@@H](O)CC1C2(C)CCC(C2)C1(C)C (stereo partly drawn) [(R,S)]
[8]
  degree of sweetness, in words: scarcely any sweetness
  Degree of sweetness: 0

## CC(NC(=O)[C@@H](N)CC(=O)O)C(O)C[C@@H]1C(C)(C)[C@@H]2CC[C@@]1(C)C2 (stereo partly drawn) [C, 3-N-(L-aspartyl)-amino-1-d-α-fenchyl-2-butanol]
[1]
  Degree of sweetness based on sucrose: 1,800 time
[2]
  Average score: 4.1
[8]
  Degree of sweetness: 1,800

## C[C@H](NC(=O)[C@@H](N)CC(=O)O)[C@@H](O)CC1C2(C)CCC(C2)C1(C)C (stereo partly drawn) [(S,S)]
[8]
  degree of sweetness, in words: scarcely any sweetness
  Degree of sweetness: 0

## C[C@@H](NC(=O)[C@@H](N)CC(=O)O)[C@H](O)C[C@@H]1C[C@@H]2CC[C@@]1(C)C2 [Compound B, (2R,3R)-3-N-(L-aspartyl)amino-1-2-butanol]
[1]
  Degree of sweetness based on sucrose: 3,300 time
[2]
  Average score: 6.3
[5]
  Taste intensity threshold value: 0.00018%
  Degree of sweetness: 3,300 time

## OC[C@H]1O[C@@](CO)(O[C@H]2O[C@H](CO)[C@@H](O)[C@H](O)[C@H]2O)[C@@H](O)[C@@H]1O [Sucrose, sucrose, reference compound]
[5]
  Taste intensity threshold value: 0.6%
  Degree of sweetness: 1 time

## C[C@@H]1[C@H]2CC[C@H](C2)[C@H]1C[C@H](O)[C@H](C)NC(=O)[C@@H](N)CC(=O)O [(2S, 3S)-3-N-(L-aspartyl)amino-1-2-butanol]
[1]
  sweetness, in words: scarcely any sweetness
  Degree of sweetness based on sucrose: 0 time

## C[C@H](NC(=O)[C@@H](N)CC(=O)O)[C@H](O)CC1C2(C)CCC(C2)C1(C)C (stereo partly drawn) [(S,R)]
[8]
  degree of sweetness, in words: scarcely any sweetness
  Degree of sweetness: 0

## COC(=O)[C@H](Cc1ccccc1)NC(=O)[C@@H](N)CC(=O)O [APM, L-aspartyl-L-phenylalanine methyl ester, reference compound] (H-Asp-Phe-OMe)
[1]
  Degree of sweetness based on sucrose: 250 time
[2]
  Average score: 5.8
[5]
  Taste intensity threshold value: 0.004%
  Degree of sweetness: 150 time

## C[C@@H](NC(=O)[C@@H](N)CC(=O)O)[C@H](O)CC1CC2CCC1(C)C2 (stereo partly drawn) [(2R,3R)-3-N-(L-aspartyl)amino-1-(1-methyl-2-norbornyl)-2-butanol]
Solubility in water
  solubility in water: highly soluble in water
[6]
  disagreeable tastes (bitter taste, bad taste, unpleasant aftertaste): almost no disagreeable tastes
  sweetness characteristics: closely similar to those of sucrose
[7]
  heat stability: good in heat stability
  stability in acidic aqueous solutions: excellent in stability in acidic aqueous solutions
